Results reported in patent US4451399A, “Imidazolecarboxylic acid derivatives” (priority 1979, dated 1984).
Values after ≈ are worked out from the molar mass of the structure shown.

Assays:
[1] = tested on: Pseudomonas aeruginosa AJ 2116; assay: Minimum Inhibitory Concentration (MIC) against Pseudomonas aeruginosa AJ 2116 in a culture; type: cell-based; conditions: AJ2116, minimum concentration required to inhibit growth of test organism in a culture
Description: Antibacterial activity was determined with regards to the compounds produced in the examples described above. Some of Comparative Minimum Inhibitory Concentrations (MIC) (the minimum concentration of the compound in micrograms per milliliter required to inhibit the growth of the test organism in a culture) obtained using Pseudomonas aeruginosa AJ 2116 as the test organism, are presented in Table 5.

[2] = Concentration in blood after oral administration to mice (oral absorption); type: in vivo; conditions: Mouse (ICR 5W male), oral 50 mg/kg; for concentration at 0.5 h: 30 minutes; for concentration at 1 h: 60 minutes; for concentration at 1.5 h: 90 minutes
Description: The imidazolecarboxylic acid derivatives of the present invention have a good oral absorption, as is evident from Table 6.
Concentration in Blood (μg/ml)

MIC [1] [µg/mL]	Compound	concentration at 0.5 h [2] [µg/mL]	concentration at 1 h [2] [µg/mL]	concentration at 1.5 h [2] [µg/mL]
25 (≈ 52.3 µM)	CC1(C)S[C@@H]2[C@H](NC(=O)[C@H](NC(=O)c3[nH]cnc3Cl)c3ccccc3)C(=O)N2[C@H]1C(=O)O [Example 3]	–	–	–
25 (≈ 48.5 µM)	CCOC(=O)c1nc[nH]c1C(=O)N[C@@H](C(=O)N[C@@H]1C(=O)N2[C@@H]1SC(C)(C)[C@@H]2C(=O)O)c1ccccc1 [Example 13, D-α-(4-ethoxycarbonylimidazole-5-carboxyamide) benzylpenicillin]	340	97	40
100 (≈ 264 µM)	CC1(C)S[C@@H]2[C@H](NC(=O)C(C(=O)O)c3ccccc3)C(=O)N2[C@H]1C(=O)O (stereo partly drawn) [Carbenicillin, reference compound]	–	–	–
12.5 (≈ 25.6 µM)	CC1(C)S[C@@H]2[C@H](NC(=O)[C@H](NC(=O)c3[nH]cnc3[N+](=O)[O-])c3ccccc3)C(=O)N2[C@H]1C(=O)O [Example 1, D-α-(4-nitroimidazole-5-carboxyamide) benzyl penicillin]	–	–	–
25 (≈ 51.1 µM)	Cc1nc(S)[nH]c1C(=O)N[C@@H](C(=O)N[C@@H]1C(=O)N2[C@@H]1SC(C)(C)[C@@H]2C(=O)O)c1ccccc1 [Example 8]	–	–	–

Compound	MIC [1] [µg/mL]	concentration at 0.5 h [2] [µg/mL]	concentration at 1 h [2] [µg/mL]	concentration at 1.5 h [2] [µg/mL]
CC1(C)S[C@@H]2[C@H](NC(=O)[C@H](N)c3ccccc3)C(=O)N2[C@H]1C(=O)O [Ampicillin, reference compound]	> 500	81	306	41
